Results reported in patent publication US10172994B2, “Hemodiafiltration method” (Fresenius Medical Care Deutschland GmbH, priority 2012, dated 2019).

Biological target: bovine serum albumin (Bos taurus, UniProt P02769)
Experiment: HF field effect 1 to 170 MHz on separation of phenylacetic acid from BSA solution in dialysis module (HPLC)
Type: in vitro ADME
Conditions: BSA 60 mg/ml, 1 mmol/l toxin
Experimental: Examination of the HF field effect in the frequency range 1 to 170 MHz.
The HF field was varied in subbands of 10 MHz in the frequency range 1-170 MHz and was compared with a control experiment without an HF field.
The quantitative determination of the phenylacetic acid was performed using HPLC.
The results of the experiments are collected in FIG. 4. […] The effect was particularly pronounced at 54.6% in the subband from 110 to 120 MHz.

Sequence of bovine serum albumin (P02769 25-607): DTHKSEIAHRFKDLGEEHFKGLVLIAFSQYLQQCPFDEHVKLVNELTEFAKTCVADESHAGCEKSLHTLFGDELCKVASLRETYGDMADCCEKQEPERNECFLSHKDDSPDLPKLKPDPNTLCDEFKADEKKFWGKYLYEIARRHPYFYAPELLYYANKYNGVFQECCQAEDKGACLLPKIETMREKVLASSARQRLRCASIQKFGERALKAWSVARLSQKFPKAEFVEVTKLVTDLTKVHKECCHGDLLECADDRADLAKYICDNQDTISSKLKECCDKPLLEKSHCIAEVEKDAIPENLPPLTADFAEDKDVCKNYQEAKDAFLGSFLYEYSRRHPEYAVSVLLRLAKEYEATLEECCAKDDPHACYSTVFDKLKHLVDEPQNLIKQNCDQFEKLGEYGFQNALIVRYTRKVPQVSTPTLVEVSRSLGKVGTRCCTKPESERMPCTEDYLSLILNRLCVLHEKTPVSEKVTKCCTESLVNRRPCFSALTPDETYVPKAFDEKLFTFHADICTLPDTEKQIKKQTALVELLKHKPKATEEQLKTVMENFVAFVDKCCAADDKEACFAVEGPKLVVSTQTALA

SMILES: O=C(O)Cc1ccccc1 [phenylacetic acid]
- increase of separation rate under the influence of the HF field (HF field 1-170 MHz in subbands of 10 MHz vs control without HF field): at least 45.3%
- increase of separation rate under the influence of the HF field (subband from 110 to 120 MHz vs control without HF field): 54.6%
